“Also recorded” adds a separate entry of the source.
Experiments:
human CB2 receptor [1] = biological target: T1, human CB2 receptor (Homo sapiens, UniProt P34972); test: 35S-GTPγS binding, CHO cells expressing human CB2 receptor; type: biochemical
T1 construct: expressed in transfected cells
Experimental: (§1) (Martin et al. 2002; Wiley et al. 2002) CB1 and CB2 receptor affinities were determined using ^3H-CP 55,940 binding to rat brain membranes and to Chinese Hamster Ovary (CHO) cells stably expressing the human CB2 receptor, respectively. In vitro functional activity was determined in these same preparations using ^35S-GTPγS binding. For in vivo behavioural effects, mice were injected intravenously with the drugs prepared in ethanol:emulphor:saline (1:1:18). The mice were evaluated for locomotor activity, analgesia, body temperature, and catalepsy. These behaviours are collectively referred to as the tetrad test and are indicative of CB1 receptor activity.

mice [2] = test: Tetrad test (locomotor activity, analgesia, body temperature, catalepsy), indicative of CB1 receptor activity; type: in vivo, mouse; conditions: i.v., doses up to 30 mg/kg
Experimental: The cerebral ischemia/reperfusion studies were carried out on 8 week old male C57BL/6 mice (weighing 23 to 27 g; Taconic N.Y.) and conducted in accordance with the guidelines approved by Institute for Animal Care and Use Committee at Temple University. The behavioural evaluation of the cannabinoid analogs was carried out in 8-week old ICR male mice weighing 23-27 g in accordance with the guidelines approved by the Institute for Animal Care and Use Committee at Virginia Commonwealth University.
as §1

C57BL/6 mice [3] = test: Regional cerebral blood flow (rCBF) during MCAO; type: in vivo, mouse; conditions: 1 mg/kg, 1 hour prior to occlusion, versus vehicle
Experimental: (§2) The animals were anesthetized with an intraperitoneal injection of Ketamine ([…])-Xylazine (20 mg/kg) mixture (1:1) at a dose of 1 ml/kg. Body temperature was maintained at […]° C. by a heating lamp and heating pad. Middle cerebral artery occlusion was achieved by the intraluminal filament methods. (Hata et al. 1998) Briefly, a midline neck incision was made under the operation microscope; the right common carotid artery (CCA), external carotid artery (ECA) and internal carotid artery (ICA) were isolated. The ECA was ligated with 6-0 silk suture distal from the ICA-ECA branch and then cut distal from ligated point. Another 6-0 silk suture was tied loosely around ECA at close to the origin at the CCA. A blunted 5-0 monofilament nylon suture coated with poly-L-lysine (0.1% in deionized water, Sigma) (Belayev et al. 1999) was introduced from a small incision on ECA and then advanced into the circle of Willis, and finally to the origin of the middle cerebral artery. The silk suture around the ECA stump was tied tightly to prevent bleeding and secure the nylon suture. The nylon suture was removed after 60 minutes occlusion and ECA was permanently tied. Reperfusion was confirmed when pulsations were again observed in ICA.
A laserPro Blood Perfusion Monitor (TSI Inc) was used to monitor regional cerebral blood flow (rCBF) prior to ischemia, during MCAO and reperfusion. […]

C57BL/6 mice [4] = test: Infarct volume after middle cerebral artery occlusion and reperfusion (MCAO/R); type: in vivo, mouse; conditions: 24 hours after MCAO
Experimental: as §2
The CB2 agonists (O-1966 and O-3853: described in Wiley et al and WO 03/091189, incorporated herein by reference, and the copending application of Razdan et al)) were dissolved in a pure ethanol:emulphor:saline mixed solution at 1:1:18. The CB2 agonists (1 mg/kg) or equal volume of vehicle were administered as an intravenous injection into the jugular vein 1 hour before MCAO or 10 minutes after reperfusion. The investigator was blinded with regard to whether the animals were members of vehicle or treatment groups during all experimental procedures and measurements.
Animals were euthanized with an overdose of pentobarbital (200 mg/kg i.p) 24 hours after MCAO and then the brains were removed. The brains were chilled in ice for 10 minutes to slightly harden the tissue. Five 2 mm coronal sections were cut using a mouse brain matrix (Zivic lab).The brain sections were placed in 2% triphenyltetrazolium chloride (TTC) (Sigma, Inc) dissolved in saline and stained for 20 minutes at 37° C. in the dark. The brain sections were then fixed in 4% paraformaldehyde at 4° C. for 24 hours and the anterior and caudal face of each section was scanned by a flatbed color scanner (Microtek Inc). The resulting images were captured as JPEG files (FIG. 2E) and analyzed with NIH image software. The infarct volumes were expressed as mm^3 as well as the percentage of the ipsilateral hemisphere.

C57BL/6 mice [5] = test: Neurological evaluation (five-point deficit score) after MCAO/R; type: in vivo, mouse; conditions: 24 hours post-ischemia
Experimental: as §2, with “The silk suture around the ECA stump was tied tightly to prevent bleeding and secure the nylon suture. The nylon suture was removed after 60 minutes occlusion and ECA was permanently tied. Reperfusion was confirmed when pulsations were again observed in ICA.” left out
The severity of neurological deficits was evaluated 24 hours after ischemic insult using a five-point deficit score (0=normal motor function; 1=flexion of torso and of contralateral forelimb upon lifting of the animal by tail; 2=circling to the contralateral side but normal posture at rest; 3=leaning to contralateral side at rest; and 4=no spontaneous motor activity) (Hata et al. 1998).

C57BL/6 mice [6] = test: Leukocyte/endothelial interactions by intravital microscopy through a cranial window in MCAO/R; type: in vivo, mouse; conditions: treatment 1 hour before MCAO
Experimental: On the day of cranial window implantation, the animals were anesthetized with an intraperitoneal injection of Ketamine (100 mg/ml)-Xylazine (20 mg/kg) mixture (1:1) at a dose of 1 ml/kg. The head was shaved and positioned in a stereotactic head holder. A 1 cm^2 area of skin on the dorsal surface of the skull over the right cortical hemisphere was excised and the periosteum was removed. A 4 mm diameter circular craniotomy was performed using a high speed drill (Champ-Air Dental Drill Benco Dental) over the right parietal cortex extending from attachment of the temporal muscle to midpoint of sagittal suture in the coronal direction and aligned to middle of the sagittal suture, so that the window contained some terminal branches of the middle cerebral artery. Normal saline was dripped over the cranium to avoid thermal injury of the cortex. […]
Leukocyte/endothelial interactions were evaluated before MCAO, 1 hour after MCAO and 24 hours after MCAO. […] Three venules (with diameter 30-50 μm) and three arterioles (with diameter 20-40 μm) in each animal were assessed. […] They were counted when they passed an arbitrary line perpendicular to the longitudinal axis of the vessel over a period of 30 seconds. […] Adhering leukocytes were scored as the number of cells per mm^2 of the vascular surface area, calculated from the diameter and standardized length (100 μm) of the vessel segment under investigation.

C57BL/6 mice [7] = test: Thoracic spinal cord injury (SCI) model; type: in vivo, mouse
Experimental: A thoracic spinal cord injury model was induced in female 6-8 week old C57BL/6 mice. Spinal cord CB2 mRNA expression was evaluated in sham animals and SCI animals 24 hours after injury by real time RT-PCR. Animals were randomized into two groups: the experimental group received intraperitoneal injections of a selective CB2 agonist (O-1966; 1 mg/kg) one hour before injury, 24 and 48 hours after injury; the control group received equal volumes of vehicle. Both groups were tested for motor function by using the Basso Mouse Scale for Locomotion (BMS) and the Basso, Beattie, Bresnahan Locomotor Rating Scale (BBB) on post-procedure days 1, 7, and 14. Urine mass was recorded twice daily to assess bladder recovery. The inflammatory cytokine TNF-α was measured by real time RT-PCR in both groups 24 hours after SCI.

CB1 receptor = biological target: T2, CB1 receptor (Rattus norvegicus, UniProt P20272); conditions: reported previously (Wiley et al. 2002); read-out: affinity for CB1 cannabinoid receptor; cited from earlier work
T2 construct: from tissue; host or cells: rat brain membranes

human CB2 receptor [8] = biological target: T1, human CB2 receptor; conditions: reported previously (Wiley et al. 2002); read-out: affinity for CB2 cannabinoid receptor; cited from earlier work
mice [9] = conditions: reference CB1/CB2 agonist, all four measures; cited from earlier work
[10] = 1 mg/kg i.v. 10 minutes after reperfusion (post-reperfusion treatment)
[11] = 1 mg/kg i.v. 1 hour before MCAO (pre-ischemic treatment)

T1 sequence (P34972 whole entry): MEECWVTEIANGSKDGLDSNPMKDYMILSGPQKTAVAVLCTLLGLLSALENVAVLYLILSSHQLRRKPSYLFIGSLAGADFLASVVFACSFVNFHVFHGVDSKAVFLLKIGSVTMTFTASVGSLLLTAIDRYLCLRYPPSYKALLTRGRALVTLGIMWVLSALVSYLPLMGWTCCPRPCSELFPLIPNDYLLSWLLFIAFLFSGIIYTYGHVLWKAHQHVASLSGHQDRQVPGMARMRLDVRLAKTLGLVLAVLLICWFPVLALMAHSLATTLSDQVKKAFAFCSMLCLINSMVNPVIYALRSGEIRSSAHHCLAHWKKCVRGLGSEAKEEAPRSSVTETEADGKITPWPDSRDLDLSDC
T2 sequence (P20272 whole entry): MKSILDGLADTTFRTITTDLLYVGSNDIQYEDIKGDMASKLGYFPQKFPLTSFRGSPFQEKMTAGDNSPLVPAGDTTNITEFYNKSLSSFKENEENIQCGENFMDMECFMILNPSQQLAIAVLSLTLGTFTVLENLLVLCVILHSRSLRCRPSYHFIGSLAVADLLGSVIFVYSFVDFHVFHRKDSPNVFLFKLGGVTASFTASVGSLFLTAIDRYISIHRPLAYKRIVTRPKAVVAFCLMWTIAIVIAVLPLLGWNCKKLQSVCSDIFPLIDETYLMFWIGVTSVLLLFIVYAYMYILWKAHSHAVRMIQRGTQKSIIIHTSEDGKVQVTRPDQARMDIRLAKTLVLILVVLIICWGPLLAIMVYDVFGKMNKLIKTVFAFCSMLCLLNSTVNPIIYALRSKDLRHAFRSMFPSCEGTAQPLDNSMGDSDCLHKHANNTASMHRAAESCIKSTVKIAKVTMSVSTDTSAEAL

Row | SMILES | EC50 (human CB2 receptor [1]; CHO cells with human CB2, read-out: EC50 for stimulating 35S-GTPγS binding (CB2)) [nM] | Emax (human CB2 receptor [1]; percent of maximal stimulation produced by the full agonist CP 55,940) [%] | effects in the tetrad test (CB1 receptor-mediated behavioural effects) (mice [2]) | effect on rCBF during the 1 hour occlusion period (C57BL/6 mice [3]) | infarct volume (C57BL/6 mice [4]; [10]) [mm^3] | infarct volume as percentage of the ipsilateral hemisphere (C57BL/6 mice [4]; [10]) [%] | infarct volume (C57BL/6 mice [4]; [11]) [mm^3] | infarct volume as percentage of the ipsilateral hemisphere (C57BL/6 mice [4]; [11]) [%] | motor function score (C57BL/6 mice [5]; pretreatment 1 hour before MCAO, vehicle 3.25±0.20) | motor function (C57BL/6 mice [5]; treatment during reperfusion) | leukocyte/endothelial interactions (C57BL/6 mice [6]) | motor function recovery (BMS and BBB) (C57BL/6 mice [7]; 1 mg/kg i.p. one hour before, 24 and 48 hours after injury, days 1, 7 and 14) | bladder function recovery rate (C57BL/6 mice [7]; 1 mg/kg i.p., 14th day after SCI, control group 14%) [%] | TNF-α expression in the injured spinal cord (C57BL/6 mice [7]; real time RT-PCR, 24 hours after SCI, compared to control group) | Ki (CB1 receptor) [nM] | Ki (human CB2 receptor [8]) [nM] | ED50's in the four tetrad measures (mice [9]) [mg/kg]
1 | CCCCCCC(C)(C)c1cc(OC)c(C2(O)CCCC(C)C2)c(OC)c1 (centres unmarked) [O-1966] | 70 ± 14 | 74 ± 5 | produced some modest behavioural effects only at doses that far exceeded those used in the MCAO/R studies; also recorded: failed to produce effects in the tetrad test | no effect on rCBF | 71.3±5.5 | 27±2 | 65.6±4.0 | 25±2.5 | 1.69±0.30 | significantly improved the motor function | attenuated leukocyte/endothelial interactions | better motor function recovery than the control group | 45 | decreased TNF-α expression | 5060 | 23 ± 2.1 | –
2 | CCCCCc1cc(O)c2c(c1)OC(C)(C)[C@@H]1CCC(C)=C[C@@H]21 [Δ^9-tetrahydrocannabinol] | – | – | – | – | – | – | – | – | – | – | – | – | – | – | – | – | 1 to 2

Source: patent US9763894B2, “Inflammation therapy” (Virginia Commonwealth University, priority 2006, dated 2017)
